Data reported in ChEMBL document CHEMBL5728731, “Alkyl chain modified imidazoquinoline TLR7/8 agonist compounds and uses thereof” (2021).

Legend:
Toll-like receptor 7 = target: T1, Toll-like receptor 7 (Homo sapiens, UniProt Q9NYK1); experiment: (§1) n Vitro Biological Assays: Plasmacytoid dendritic cell (pDC)—enriched peripheral blood mononuclear cells (PBMCs) were prepared from the blood of a series of human donors (3-5 donors/experiment). PBMCs were isolated using Ficoll-Paque Premium® (GE Healthcare, Chicago Ill.) using methods well known to those in the art. pDCs were magnetically isolated from the total recovered PBMC population using CD304 (BDCA-4/Neuropilin-1) microbeads (Miltenyi Biotec, San Diego Calif.), according to the manufacturer's instructions. Isolated pDCs were then added back to between 1 and 2×108 of the corresponding donor's PBMCs for relative enrichment of this cell type. […] Culture supernatants were collected and interferon-alpha (IFNα) protein levels were measured by ELISA (MabTech, Cincinnati Ohio), according to the manufacturer's instructions.Monocytes were magnetically isolated from PBMCs, prepared as described above, following labeling with CD14 microbeads (Miltenyi Biotec, San Diego Calif.), according to the manufacturer's instructions. […] Culture supernatants were collected and tumor necrosis factor alpha (TNFα) protein levels were measured by ELISA (MabTech, Cincinnati Ohio), according to the manufacturer's instructions.
T1 sequence (Q9NYK1 whole entry): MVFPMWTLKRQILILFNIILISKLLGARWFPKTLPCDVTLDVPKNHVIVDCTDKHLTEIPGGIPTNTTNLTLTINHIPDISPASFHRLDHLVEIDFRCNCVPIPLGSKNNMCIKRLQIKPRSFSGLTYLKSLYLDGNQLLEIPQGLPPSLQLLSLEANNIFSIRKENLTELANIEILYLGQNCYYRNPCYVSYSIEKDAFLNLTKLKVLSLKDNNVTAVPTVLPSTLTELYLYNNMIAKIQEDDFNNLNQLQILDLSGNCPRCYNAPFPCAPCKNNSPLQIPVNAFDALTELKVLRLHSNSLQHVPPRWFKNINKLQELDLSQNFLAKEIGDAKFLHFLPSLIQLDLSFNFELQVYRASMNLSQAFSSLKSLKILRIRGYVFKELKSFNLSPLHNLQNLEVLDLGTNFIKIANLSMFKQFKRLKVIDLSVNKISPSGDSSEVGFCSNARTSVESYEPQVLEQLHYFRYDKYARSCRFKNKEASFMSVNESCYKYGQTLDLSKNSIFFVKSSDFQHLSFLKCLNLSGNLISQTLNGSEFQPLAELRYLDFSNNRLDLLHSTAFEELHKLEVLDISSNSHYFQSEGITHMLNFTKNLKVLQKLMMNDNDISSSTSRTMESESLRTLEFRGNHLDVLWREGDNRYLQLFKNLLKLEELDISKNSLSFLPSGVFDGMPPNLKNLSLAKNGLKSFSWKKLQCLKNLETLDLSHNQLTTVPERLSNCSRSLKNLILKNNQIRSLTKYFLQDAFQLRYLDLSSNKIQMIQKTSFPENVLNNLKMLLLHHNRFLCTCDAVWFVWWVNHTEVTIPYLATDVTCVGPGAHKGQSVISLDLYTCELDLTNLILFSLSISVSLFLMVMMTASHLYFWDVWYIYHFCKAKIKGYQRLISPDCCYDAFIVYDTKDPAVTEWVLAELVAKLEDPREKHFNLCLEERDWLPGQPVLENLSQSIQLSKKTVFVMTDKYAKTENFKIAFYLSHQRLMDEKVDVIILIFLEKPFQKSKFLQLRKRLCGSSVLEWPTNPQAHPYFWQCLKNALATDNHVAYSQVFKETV

Toll-like receptor 8 = target: T2, Toll-like receptor 8 (Homo sapiens, UniProt Q9NR97); experiment: as §1
T2 sequence (Q9NR97 whole entry): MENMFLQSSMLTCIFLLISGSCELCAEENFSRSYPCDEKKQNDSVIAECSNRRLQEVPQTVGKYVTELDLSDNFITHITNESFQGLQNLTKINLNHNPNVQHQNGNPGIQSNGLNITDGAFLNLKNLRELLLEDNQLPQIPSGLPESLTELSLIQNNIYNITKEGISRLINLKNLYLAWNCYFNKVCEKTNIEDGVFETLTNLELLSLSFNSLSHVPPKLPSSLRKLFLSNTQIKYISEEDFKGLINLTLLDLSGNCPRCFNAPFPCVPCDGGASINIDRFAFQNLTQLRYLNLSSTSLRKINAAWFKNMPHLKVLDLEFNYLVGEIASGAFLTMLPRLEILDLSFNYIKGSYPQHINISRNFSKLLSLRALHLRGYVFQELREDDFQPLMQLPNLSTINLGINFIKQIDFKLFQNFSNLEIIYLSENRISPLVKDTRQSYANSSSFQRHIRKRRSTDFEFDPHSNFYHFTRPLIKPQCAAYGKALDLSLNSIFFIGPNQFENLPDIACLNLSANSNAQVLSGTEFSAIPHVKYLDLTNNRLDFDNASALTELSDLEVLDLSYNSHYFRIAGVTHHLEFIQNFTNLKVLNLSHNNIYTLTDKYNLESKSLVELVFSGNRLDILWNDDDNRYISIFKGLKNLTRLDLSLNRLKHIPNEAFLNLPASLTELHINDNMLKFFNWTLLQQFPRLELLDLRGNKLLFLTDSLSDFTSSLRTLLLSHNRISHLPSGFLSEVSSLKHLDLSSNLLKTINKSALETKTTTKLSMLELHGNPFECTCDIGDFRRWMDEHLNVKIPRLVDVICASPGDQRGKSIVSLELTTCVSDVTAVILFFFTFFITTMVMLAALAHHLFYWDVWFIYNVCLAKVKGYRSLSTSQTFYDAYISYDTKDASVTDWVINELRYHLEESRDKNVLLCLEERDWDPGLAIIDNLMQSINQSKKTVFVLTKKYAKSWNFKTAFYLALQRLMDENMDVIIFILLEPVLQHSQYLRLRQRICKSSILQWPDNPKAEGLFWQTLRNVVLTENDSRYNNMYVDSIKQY

SMILES	EC50 (Toll-like receptor 7) [nM]	EC50 (Toll-like receptor 8) [nM]
CCCCCCCCCCCCCCCCCC(=O)NCc1ccc(Cn2c(CCCC)nc3c(N)nc4ccccc4c32)cc1	41	5720
CCCCCC(=O)NCc1ccc(Cn2c(CCCC)nc3c(N)nc4ccccc4c32)cc1	11	2140
CCCCCCCCCCCCCCC(=O)NCc1ccc(Cn2c(CCCC)nc3c(N)nc4ccccc4c32)cc1	2	827
